Here are results for 25 compounds from ChEMBL document CHEMBL1201862, “PubChem BioAssay data set” (2004).

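Briefly, cells in 96-well plates were exposed to five compound concentrations for 48 h, and endpoints were estimated by linear interpolation. GI50 = concentration required for 50% inhibition of growth.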 Active and inactive are the calls of the source. Rule as the data show it: active = GI50 up to about 1.1 µM and inactive = higher.

Test systems include DLD-1; DMS-114; DMS-273; KM-20L2; LXFL 529; M19-MEL; SNB-78; XF498; RXF 631.
Holding throughout (experiment): DTP human tumour cell line panel, 48 h

On to `COc1cc(/C=C/c2ccc(/C=C/c3cc(OC)c(OC)c(OC)c3)cc2)cc(OC)c1OC`, for which the GI50 is 42.3 µM (inactive) in the assay on DLD-1; 22.4 µM (inactive) in the assay with DMS-114; 14.6 µM (inactive) in the assay with DMS-273; 20.8 µM (inactive) with KM-20L2; 11.9 µM (inactive) with LXFL 529; 32.9 µM (inactive) with M19-MEL. Besides, the GI50 in the assay with SNB-78 is 26.1 µM (inactive); with XF498, 17 µM (inactive).
On to `CC(O)CCC(=O)c1ccoc1` (stereo not drawn), for which the GI50 in the assay with DLD-1 is 7960 µM (inactive); in the assay with DMS-114, 2610 µM (inactive); in the assay with DMS-273, 5450 µM (inactive); in the assay with KM-20L2, > 9160 µM (inactive); in the assay on LXFL 529 it was > 1000 µM (inactive); in the assay with M19-MEL, 5480 µM (inactive). In addition, the GI50 in the assay on SNB-78 is 5500 µM (inactive).
`CC(C)CCC[C@@H](C)C1CCC2[C@@H]3CC=C4C[C@@H](OC(=O)CCC(=O)NCC[N+](C)(C)CCCS(=O)(=O)[O-])CC[C@]4(C)C3CC[C@@]21C` (stereo partly drawn): the GI50 with DLD-1 was 21.7 µM (inactive); in the assay with DMS-114, 20.6 µM (inactive); in the assay with DMS-273, 14.7 µM (inactive); in the assay with KM-20L2, 81.3 µM (inactive); with LXFL 529, 27.9 µM (inactive); in the assay with M19-MEL, 18.5 µM (inactive). Also, the GI50 in the assay on SNB-78 was 24.9 µM (inactive).
For the compound `COc1ccc(/C(=N\NC(=S)NN)C(c2ccc(OC)cc2)C2C(=O)Oc3ccccc32)cc1` (stereo not drawn), the GI50 in the assay with DLD-1 was > 10 µM (inactive); in the assay on DMS-114 it was 14.8 µM (inactive); in the assay with DMS-273, > 10 µM (inactive); with KM-20L2 it was > 10 µM (inactive); in the assay with LXFL 529 it was 72.4 µM (inactive); in the assay on M19-MEL it was > 10 µM (inactive). Also, the GI50 with SNB-78 and in the assay with XF498 was > 10 µM (inactive) throughout.
Regarding `Cc1c(C(=O)CSc2nc3ccccc3c(=O)n2-c2ccccc2)c(=O)n(-c2ccccc2)n1C`, the GI50 with DLD-1 was > 100 µM (inactive); in the assay on DMS-114, > 100 µM (inactive); with DMS-273, 68.2 µM (inactive); with KM-20L2, > 100 µM (inactive); with M19-MEL, 52.7 µM (inactive); with SNB-78, 45.5 µM (inactive). Also, the GI50 in the assay on XF498 was 43.2 µM (inactive).
As to `NNC(=O)CNC(=O)c1ccc(Cl)cc1Cl`, the GI50 in the assay with DLD-1, with DMS-114, in the assay with DMS-273, in the assay on KM-20L2, in the assay with LXFL 529 and with M19-MEL was > 100 µM (inactive) in each case. Also, the GI50 in the assay with XF498 was 91.6 µM (inactive).
With `CC(=O)OC1CC2Oc3ccc(C)cc3C(C)(O2)C1=O` (stereo not drawn), the GI50 was > 100 µM (inactive) with DLD-1; > 100 µM (inactive) in the assay with DMS-114; > 100 µM (inactive) in the assay with DMS-273; > 100 µM (inactive) with M19-MEL; 76 µM (inactive) in the assay with XF498.
Regarding `Nc1ncnc(NC2C=C(CO)C(O)C2O)c1[N+](=O)[O-]` (stereo not drawn), the GI50 in the assay on DLD-1, in the assay with DMS-114, in the assay on DMS-273, with KM-20L2, in the assay with LXFL 529 and in the assay on M19-MEL was > 100 µM (inactive) throughout. The GI50 in the assay with RXF 631 and in the assay with SNB-78 was > 100 µM (inactive) throughout.
On to `COC1CCC(OC)C(C2(C3CC(OC)CCC3OC)OC(=O)c3ccccc32)C1` (stereo not drawn), for which the GI50 in the assay on DLD-1 was > 100 µM (inactive); in the assay with DMS-114, 55.7 µM (inactive); with DMS-273, 22.6 µM (inactive); in the assay with KM-20L2, 44.2 µM (inactive); in the assay on RXF 631 it was > 100 µM (inactive); in the assay with SNB-78, > 100 µM (inactive). For the same compound, the GI50 in the assay with XF498 is 76.4 µM (inactive).
Take `CC(=O)OCCOCNC(=S)N/N=C(\C)c1cnccn1`: the GI50 in the assay on DLD-1 was 34.3 µM (inactive); in the assay on DMS-114, 16.8 µM (inactive); in the assay on DMS-273, 24.5 µM (inactive); in the assay with KM-20L2, 13.2 µM (inactive); in the assay on LXFL 529, 22.9 µM (inactive); in the assay on M19-MEL, 15.9 µM (inactive). Further, the GI50 in the assay on SNB-78 and in the assay on XF498 was > 100 µM (inactive) each time.
Take `CC(C)(Br)C(Br)CC/C(=C/CBr)CBr.CC(C)(Br)C(Br)CC/C(=C\CBr)CBr` (stereo not drawn): the GI50 with DLD-1 is 3.39 µM (inactive); in the assay with DMS-273 it was 1.65 µM (inactive); in the assay with LXFL 529, 3.3 µM (inactive); with M19-MEL, 2 µM (inactive); with SNB-78 it was 4.46 µM (inactive).
For `Cc1cc(C)nc(/C(=N\NC(N)=O)C(=O)Nc2nc3ccc(C)cc3s2)c1`, the GI50 is > 85.3 µM (inactive) in the assay with DLD-1; > 48.5 µM (inactive) with DMS-114; > 58.1 µM (inactive) with DMS-273; > 92.3 µM (inactive) in the assay with KM-20L2; > 100 µM (inactive) with LXFL 529; > 100 µM (inactive) in the assay with M19-MEL. Moreover, the GI50 with SNB-78 and in the assay with XF498 was > 100 µM (inactive) throughout.
As for `CCC1=C(C)/C(=C/c2[nH]c(C(Br)Br)c(CC)c2C)N=C1C(Br)Br`, the GI50 with DLD-1 was 25.6 µM (inactive); with DMS-114, 19 µM (inactive); in the assay on KM-20L2 it was 41 µM (inactive); in the assay with LXFL 529 it was 31.9 µM (inactive); with M19-MEL it was 20.9 µM (inactive); in the assay with SNB-78, 33.4 µM (inactive).
Take `COC1=CC(=O)C2C(C1=O)[C@@H]1c3ccccc3C[C@H]21` (stereo partly drawn): the GI50 with DLD-1, in the assay with DMS-273, in the assay on M19-MEL, with RXF 631, with SNB-78 and with XF498 was > 100 µM (inactive) in each case.
For `Nc1nc(CCC(=O)Nc2cccc(C(F)(F)F)c2)cc(-c2ccc3ccccc3c2)n1`, the GI50 in the assay on DLD-1, in the assay on DMS-114, in the assay on DMS-273, with KM-20L2, in the assay with LXFL 529 and in the assay with M19-MEL was > 100 µM (inactive) each time. In addition, the GI50 in the assay on SNB-78 and in the assay with XF498 was > 100 µM (inactive) in each case.
As for `CCc1nnc(S)n1/N=C/c1ccc(-c2ccc([N+](=O)[O-])cc2)o1`, the GI50 in the assay on DLD-1, in the assay with DMS-273, in the assay on KM-20L2, in the assay on LXFL 529, in the assay with M19-MEL and with SNB-78 was > 100 µM (inactive) throughout. For the same compound, in the assay on XF498, the GI50 was > 100 µM (inactive).
For `COC(=O)C1=C(C(=O)OC)C2(C)Nc3ccccc3C2=C(c2ccccc2)C1` (stereo not drawn), the GI50 in the assay on DLD-1 was 30.4 µM (inactive); in the assay with DMS-114 it was 18.3 µM (inactive); in the assay with DMS-273, 21.4 µM (inactive); with KM-20L2 it was 28.1 µM (inactive); with LXFL 529, 15.1 µM (inactive); with M19-MEL, 24.2 µM (inactive). The GI50 with SNB-78 is 19 µM (inactive); in the assay with XF498 it was 12.7 µM (inactive).
In the case of `O=c1cc(-c2ccccc2)oc2cc(OCC(O)COc3ccc4c(=O)cc(-c5ccccc5)oc4c3)ccc12`, the GI50 was > 100 µM (inactive) in the assay on DLD-1; > 100 µM (inactive) with DMS-114; 41.9 µM (inactive) in the assay on DMS-273; > 100 µM (inactive) in the assay with KM-20L2; 40 µM (inactive) in the assay with LXFL 529; 56.4 µM (inactive) in the assay with M19-MEL. Also, the GI50 in the assay on SNB-78 was 13.6 µM (inactive); in the assay on XF498 it was 23.4 µM (inactive).
Regarding `COC12CCC(C(C(=O)c3ccccc3)=C1C(=O)c1ccccc1)C(O)C2` (stereo not drawn), the GI50 in the assay on DLD-1, in the assay with DMS-114, with DMS-273, with LXFL 529, in the assay on M19-MEL and in the assay with RXF 631 was > 100 µM (inactive) throughout. Further, the GI50 in the assay on SNB-78 and in the assay with XF498 was > 100 µM (inactive) each time.
In the case of `O=C(OC1CC(n2cc(F)c(=O)[nH]c2=O)OC1CSC(=O)c1ccccc1)c1ccccc1` (stereo not drawn), the GI50 in the assay with DLD-1 is 33.8 µM (inactive); in the assay on DMS-114 it was 37.3 µM (inactive); in the assay on KM-20L2, 18.7 µM (inactive); with LXFL 529, 90.8 µM (inactive); in the assay with M19-MEL, 26.5 µM (inactive); in the assay with RXF 631, 15.1 µM (inactive). Moreover, the GI50 in the assay with SNB-78 was 32.1 µM (inactive).
Turning to `c1ccc2c(C3NCCc4nc[nH]c43)cccc2c1` (stereo not drawn), the GI50 in the assay on DLD-1, in the assay with DMS-114, with DMS-273, in the assay with KM-20L2, in the assay with LXFL 529 and with M19-MEL was > 100 µM (inactive) in each case. Also, the GI50 with SNB-78 is > 100 µM (inactive).
Consider `CCCCSC1CCSc2c1ccc1ccccc21` (stereo not drawn), for which the GI50 with DLD-1 is 78.9 µM (inactive); in the assay with DMS-114, > 100 µM (inactive); with KM-20L2, 53.8 µM (inactive); in the assay with M19-MEL, > 100 µM (inactive); with SNB-78 it was > 100 µM (inactive); with XF498, 0.119 µM (active).
As to `C=CCCCCn1c2ccccc2c2c(C)c3c[n+](C)ccc3c(C)c21`, the GI50 was 0.607 µM (active) in the assay with DLD-1; 0.118 µM (active) with DMS-114; 0.352 µM (active) in the assay with KM-20L2; 0.176 µM (active) in the assay with LXFL 529; 0.296 µM (active) with M19-MEL; 0.387 µM (active) in the assay on SNB-78.
Take `Cn1cnc([N+](=O)[O-])c1Sc1nc(N)nc2c1ncn2C1OC(CO)C(O)C1O` (stereo not drawn): the GI50 in the assay with DLD-1 was 7.67 µM (inactive); in the assay on DMS-114 it was 10.7 µM (inactive); in the assay on DMS-273, 4.17 µM (inactive); in the assay with KM-20L2, 3.06 µM (inactive); with LXFL 529, 45.8 µM (inactive); in the assay with M19-MEL, 35.2 µM (inactive). In addition, the GI50 was 7.26 µM (inactive) with SNB-78 and 6.87 µM (inactive) with XF498.
Consider `C[N+](C)(C)CCC(=O)CC[N+](C)(C)C`, for which the GI50 with DLD-1 is 16.2 µM (inactive); with DMS-114, 20.8 µM (inactive); in the assay on DMS-273 it was 25.6 µM (inactive); with KM-20L2 it was 25.5 µM (inactive); with LXFL 529, 16.1 µM (inactive); with M19-MEL, 23.5 µM (inactive). In addition, the GI50 with SNB-78 is 22.3 µM (inactive); in the assay with XF498, 21.2 µM (inactive).
